From patent US10449547B2, “Preparation of a powdery pharmaceutical composition by means of cryo-milling” (GRÜNENTHAL GMBH, priority 2013, dated 2019)

Assay: Relative alpha-tocopherol content within blend before and after cryo-milling
Assay type: physicochemical
Description: Relative Alpha-Tocopherol Content within Blend Before and after Cryo-Milling: […]

SMILES: Cc1c(C)c2c(c(C)c1O)CC[C@@](C)(CCC[C@H](C)CCC[C@H](C)CCCC(C)C)O2 [alpha-tocopherol]
- degradation of alpha-tocopherol with cryo-milling process: did not degrade
